# How the values were obtained:
# [1] = tested on: Klebsiella pneumoniae; experiment: Antibacterial activity against Klebsiella pneumoniae NR41388 assessed as bacterial growth inhibition incubated overnight by broth microdilution assay; type: functional
# [2] = tested on: Staphylococcus aureus; experiment: Antibacterial activity against Staphylococcus aureus ATCC25923 assessed as bacterial growth inhibition incubated overnight by broth microdilution assay; type: functional
# [3] = tested on: KB 3-1; experiment: Cytotoxicity against human KB 3-1 cells assessed as reduction in cell viability; type: functional, cell-based
# [4] = tested on: Klebsiella pneumoniae; experiment: Antibacterial activity against Klebsiella pneumoniae clinical isolate assessed as bacterial growth inhibition incubated overnight by broth microdilution assay; type: functional
# [5] = tested on: Pseudomonas aeruginosa; experiment: Antibacterial activity against Pseudomonas aeruginosa HM801 assessed as bacterial growth inhibition incubated overnight by broth microdilution assay; type: functional
# [6] = tested on: Staphylococcus aureus; experiment: Antibacterial activity against Staphylococcus aureus ATCC43300 assessed as bacterial growth inhibition incubated overnight by broth microdilution assay; type: functional
# [7] = tested on: Salmonella typhi; experiment: Antibacterial activity against Salmonella enterica subsp. enterica serovar Typhi CPC assessed as bacterial growth inhibition incubated overnight by broth microdilution assay; type: functional
# [8] = tested on: Salmonella enterica; experiment: Antibacterial activity against Salmonella enterica NR13555 assessed as bacterial growth inhibition incubated overnight by broth microdilution assay; type: functional
# [9] = Antioxidant activity assessed as inhibition of ABTS radical scavenging activity measured upto 6 mins; type: functional
Compound,MIC [1] [µg/mL],MIC [2] [µg/mL],IC50 [3] [µM],MIC [4] [µg/mL],MIC [5] [µg/mL],MIC [6] [µg/mL],MIC [7] [µg/mL],MIC [8] [µg/mL],IC50 [9] [µM]
COC1OC(=O)c2cc3ccc4c(c3c(-c3ccc(O)c(O)c3)c21)OCO4 (stereo not drawn),62.5,62.5,4.1,62.5,31.3,62.5,31.3,62.5,–
GENTAMICIN,0.07,0.03,–,0.03,0.05,0.07,0.05,0.07,–
COC(=O)c1cc2ccc3c(c2c2c1C(=O)c1cc(O)c(O)cc1-2)OCO3,–,–,9.5,–,–,–,–,250,84.5
C=CCOC(=O)c1cc2ccc3c(c2c(-c2ccc4c(c2)OCO4)c1C=O)OCO3,–,–,–,500,125,500,500,–,–
COc1cc([C@@H](O)[C@@H]2CO[C@H](c3ccc(O)c(OC)c3)[C@H]2CO)ccc1O [TANEGOOL],500,500,–,62.5,15.6,125,31.3,250,41.2
COc1ccc(C[C@H]2NC(=O)/C=C/C[C@@H]([C@H](C)[C@H]3O[C@@H]3c3ccccc3)OC(=O)[C@H](CC(C)C)OC(=O)C(C)(C)CNC2=O)cc1Cl [CRYPTOPHYCIN 52],–,–,1.3e-05,–,–,–,–,–,–
Cc1c(C)c2c(c(C)c1O)CCC(C)(C(=O)O)O2 (stereo not drawn) [TROLOX],–,–,–,–,–,–,–,–,68
CCCCOC1OC(=O)c2cc3ccc4c(c3c(-c3ccc5c(c3)OCO5)c21)OCO4 (stereo not drawn),500,500,–,500,250,125,500,–,–

# Source: ChEMBL document CHEMBL5215008, “Bioactive Arylnaphthalide Lignans from Justicia depauperata” (J Nat Prod, 2022)
